Assay results from patent US5188642A, “Glyphosate-resistant plants” (priority 1990, dated 1993).

Test system: infected potato stem explants
Experiment: Kanamycin selection of potato stem explants
Type: cell-based, potato (Russet Burbank)
Conditions: Kanamycin at 300 mg/l
Description: Potato--Shoot tips of virus-free Russet Burbank are subcultured on media containing MS major and minor salts, 0.17 g/l sodium dihygrogen phosphate, 0.4 mg/l thiamine hydrochloride, 0.1 g/l inositol, 3% sucrose, 1.5 g/l Gelrite™ (Kelco, Co ) at pH 5.6. Cultures are grown at 24C in a 16 hour photoperiod. Shoots are used approximately 3-4 weeks after subculturing. Stem internodes are cut into approximately 8 mm lengths and split lengthwise, then the cut surface is smeared with Agrobacterium carrying binary vector pMON542 and helper plasmid pTiT37-SE which had been streaked on an LB agar plate and grown for a few days. Stem sections are placed cut side down on the surface of the medium containing MS salts, MS organics, 3% sucrose, 2.25 mg/l BA, […] NAA, 10 mg/l GA, 1.5 g/l Gelrite at pH 5.6. After 4 days, the stem explants are transferred to the same medium but with carbenicillin at 500 mg/l and kanamycin as the selective agent at 0 or 300 mg/l. Two weeks after inoculation, the explants are moved onto medium of the same composition but without NAA.

NC[C@H]1O[C@H](O[C@H]2[C@H](O)[C@@H](O[C@H]3O[C@H](CO)[C@@H](O)[C@H](N)[C@H]3O)[C@H](N)C[C@@H]2N)[C@H](O)[C@@H](O)[C@@H]1O [Kanamycin, kanamycin]
swelling and callusing of explants: sufficient to prevent swelling and callusing of the infected explants without killing the tissue
